Reference: patent US9695225B2, “Peptide compound for treatment of severe hypoglycemia” (Eli Lilly and Company, priority 2013, dated 2017)
Where two headings read alike, the source gives them in different places. Non-standard residues stand in square brackets, D forms with d. Residues, ends and D or L forms follow the SMILES beside them. Aib = CC(C)(N)C(=O)O

How the values were obtained:
[1] = format: physicochemical
Procedure: (§1) The compound of SEQ ID NO: 2 is dissolved in H2O to a 10 mg/mL concentration (peptide content), filtered through a 0.22 μm filter (Millex, SLGV004SL), and then diluted to 1 mg/mL in Buffer P5 (10 mM Histidine, 150 mM NaCl in H2O, pH 5.0) or Buffer P6 (10 mM Histidine, 150 mM NaCl in H2O, pH 6.0). Each solution is transferred to three vials and autoclaved. Samples are then maintained at 4° C., 30° C. and 40° C. Samples are visually assessed at different time points for turbidity and phase separation. Stability of the compound is assessed by analytical reverse phase HPLC (RP-HPLC) on a Phenomenex Aeris Widepore, 3.6 μm, XB-C18 4.6×100 mm column (P/NO 00D-4482-E0) heated at 60° C. with a AB (A=0.05% TFA/H2O; B=0.04% TFA/acetonitrile) gradient of 5% B isocratic over 5 min, 5 to 25% B over 20 minutes, 25 to 30% B over 30 min, and 30 to 45% B over 10 min with a flow rate of 1.2 mL/min (wavelength of 220 ηm).

[2] = Chemical stability by RP-HPLC (% main peak); format: physicochemical; conditions: for 4° C. % Main Peak / 30° C. % Main Peak / 40° C. % Main Peak: 4 weeks; for % Main Peak Day 0: RP-HPLC
Procedure: as §1
The compound of SEQ ID NO: 2 also maintains chemical stability at pH 5 (Buffer P5) and pH 6 (Buffer P6) when maintained at 4° C., 30° C. and 40° C. for 4 weeks.

[3] = Physical stability test using Thioflavin T binding assay (fibrillation); format: physicochemical; conditions: 25° C.; for Thioflavin T fluorescence t = 0 h / Thioflavin T fluorescence t = 40 h / Thioflavin T fluorescence t = 120 h: 1 mg/mL, 300 rpm
Procedure: Fibrillation is a common problem when glucagon is formulated in aqueous solution. To assess the level of fibrillation of the compound of the present invention, a Thioflavin T binding assay is performed.
All samples are mechanically stressed at 25° C. in a magnetic stir plate set at 300 rpm. […] Raw data is collected with Softmax Pro 5.4.1 (Molecular Devices) and imported to Excel.

C57/Bl6 male mice = experiment: Effects on blood glucose levels in C57/Bl6 male mice; format: in vivo; conditions: for Blood glucose levels: mean±SEM of 4 mice
Procedure: To determine the effects of the compound of SEQ ID NO: 2 on blood glucose levels, the compound is administered to C57/Bl6 mice. Three month old male C57BL6 mice (Harlan Laboratories) are used Animals are individually housed in a temperature-controlled (24° C.) facility with a 12 hour light/dark cycle, and have free access to food and water. After 1 week acclimation to the facility, mice are randomized to treatment groups (n=4/group). Test compound is formulated in Buffer 2 (see Physical stability test using Thioflavin T binding assay). On the morning of test, food is removed at 08:00 AM. Two hours after food is removed, the test compound is given subcutaneously at 0, 1, 3 or 10 μg/kg doses. Blood glucose is measured at time 0, 15, 30, 60 and 120 minutes after test compound administration with an ACCU-CHECK® (Roche Diagnostics) glucometer. […] Results are expressed as mean±standard error mean (SEM) of 4 mice per group.
Blood glucose levels at 10 μg/kg of compound of SEQ ID NO: 2 is taken as the maximum value.

[4] = Buffer 1 (20 mM Histidine, pH 6.0)
[5] = Buffer 2 (10 mM Histidine, 150 nM NaCl, pH 6.0)
[6] = Buffer 3 (10 mM Histidine, 300 mM sorbitol, pH 6.0)
[7] = Buffer 4 (10 mM Histidine, 0.02% Tween 80, pH 6.0)
[8] = Buffer 5 (10 mM Histidine, 300 mM Arginine, pH 6.0)
[9] = Buffer 6 (10 mM Histidine, 300 mM sucrose, pH 6.0)

With CC(C)C[C@H](NC(=O)[C@H](Cc1c[nH]c2ccccc12)NC(=O)[C@H](CCC(=O)O)NC(=O)[C@@H](NC(=O)[C@H](Cc1ccccc1)NC(=O)[C@H](CCC(=O)O)NC(=O)[C@H](CCC(N)=O)NC(=O)[C@H](C)NC(=O)[C@H](CCCCN)NC(=O)[C@H](CCCCN)NC(=O)C(C)(C)NC(=O)[C@H](CC(=O)O)NC(=O)[C@H](CC(C)C)NC(=O)[C@H](Cc1ccc(O)cc1)NC(=O)[C@H](CCCCN)NC(=O)[C@H](CO)NC(=O)[C@H](Cc1ccc(O)cc1)NC(=O)[C@H](CC(=O)O)NC(=O)[C@H](CO)NC(=O)[C@H](CC(C)C)NC(=O)[C@H](Cc1ccccc1)NC(=O)[C@@H](NC(=O)CNC(=O)[C@H](CCC(N)=O)NC(=O)[C@H](C)NC(=O)[C@@H](N)Cc1c[nH]cn1)[C@@H](C)O)C(C)C)C(=O)N[C@@H](CC(C)C)C(=O)N[C@@H](CCCCN)C(=O)N[C@H](C(=O)NCC(=O)N1CCC[C@H]1C(=O)N[C@@H](CO)C(=O)N[C@@H](CO)C(=O)NCC(=O)N[C@@H](C)C(=O)N1CCC[C@H]1C(=O)N1CCC[C@H]1C(=O)N[C@@H](CCCCN)C(=O)N[C@@H](CO)C(=O)N[C@@H](CCCCN)C(N)=O)[C@@H](C)O [SEQ ID NO: 2] (H-HAQGTFLSDYSKYLD[Aib]KKAQEFVEWLLKTGPSSGAPPKSK-NH2) the “solubility by visual assessment and RP-HPLC” value [1] was “maintains good solubility”, the Physical appearance ([1]; 1 mg/mL, Buffer P5 and P6, over 4 weeks) was “clear to colorless, with no opalescences and no particles” and the “30° C. vs 4° C. Recovery 4 wk” value ([1]; Buffer P5 (pH 5.0)) was 100%. The “40° C. vs 4° C. Recovery 4 wk” value ([1]; Buffer P5 (pH 5.0)) was 100%, the “30° C. vs 4° C. Recovery 4 wk” value ([1]; Buffer P6 (pH 6.0)) was 100% and the “40° C. vs 4° C. Recovery 4 wk” value ([1]; Buffer P6 (pH 6.0)) was 101%. The “4° C. Total Peak Area 4 wk” value ([1]; pH 5) was 4933, the “30° C. Total Peak Area 4 wk” value ([1]; pH 5) was 4932 and the “40° C. Total Peak Area 4 wk” value ([1]; pH 5) was 4932. The “4° C. Total Peak Area 4 wk” value ([1]; pH 6) was 4918, the “30° C. Total Peak Area 4 wk” value ([1]; pH 6) was 4911 and the “40° C. Total Peak Area 4 wk” value ([1]; pH 6) was 4960. For the same molecule, the “4° C. % Main Peak” value ([2]; Buffer P5 (pH 5.0)) was 98.01%, the “30° C. % Main Peak” value ([2]; Buffer P5 (pH 5.0)) was 97.07% and the “40° C. % Main Peak” value ([2]; Buffer P5 (pH 5.0)) was 92.64%. The “% Main Peak Day 0” value ([2]; Buffer P5 (pH 5.0)) was 99.55%, the “4° C. % Main Peak” value ([2]; Buffer P6 (pH 6.0)) was 98.60% and the “30° C. % Main Peak” value ([2]; Buffer P6 (pH 6.0)) was 97.71%. The “40° C. % Main Peak” value ([2]; Buffer P6 (pH 6.0)) was 95.00%, the “% Main Peak Day 0” value ([2]; Buffer P6 (pH 6.0)) was 99.02% and the main peak changes ([2]; pH 5 (Buffer P5), after 4 weeks at 30° vs. 4° C.) was “less than 1%”. For the same molecule, the main peak changes ([2]; pH 5 (Buffer P5), after 4 weeks at 40° C. vs. 4° C.) was “less than 6%”, the main peak changes ([2]; pH 6 (Buffer P6), after 4 weeks at 30° vs. 4° C.) was “less than 1%” and the main peak changes ([2]; pH 6 (Buffer P6), after 4 weeks at 40° C. vs. 4° C.) was “less than 4%”. The “fibrillation as measured by the Thioflavin T binding assay” value ([3]; pH 6, mechanical stress) was “did not demonstrate fibrillation”, the “Thioflavin T fluorescence t = 0 h” value [3, 4] was 74.6 fluorescence units and the “Thioflavin T fluorescence t = 40 h” value [3, 4] was 76.9 fluorescence units. For the same molecule, the “Thioflavin T fluorescence t = 120 h” value [3, 4] was 89.2 fluorescence units, the “Thioflavin T fluorescence t = 0 h” value [3, 5] was 130.1 fluorescence units and the “Thioflavin T fluorescence t = 120 h” value [3, 5] was 137.0 fluorescence units. For the same molecule, the “Thioflavin T fluorescence t = 40 h” value ([3]; Buffer 2 (10 mM Histidine, NaCl, pH 6.0)) was 137.3 fluorescence units, the “Thioflavin T fluorescence t = 0 h” value [3, 6] was 68.1 fluorescence units and the “Thioflavin T fluorescence t = 40 h” value [3, 6] was 71.4 fluorescence units. The “Thioflavin T fluorescence t = 120 h” value [3, 6] was 72.4 fluorescence units, the “Thioflavin T fluorescence t = 0 h” value [3, 7] was 51.9 fluorescence units and the “Thioflavin T fluorescence t = 40 h” value [3, 7] was 56.2 fluorescence units. The “Thioflavin T fluorescence t = 120 h” value [3, 7] was 57.4 fluorescence units, the “Thioflavin T fluorescence t = 0 h” value [3, 8] was 113.9 fluorescence units and the “Thioflavin T fluorescence t = 40 h” value [3, 8] was 120.0 fluorescence units. For the same molecule, the “Thioflavin T fluorescence t = 120 h” value [3, 8] was 123.2 fluorescence units, the “Thioflavin T fluorescence t = 0 h” value [3, 9] was 78.0 fluorescence units and the “Thioflavin T fluorescence t = 40 h” value [3, 9] was 74.1 fluorescence units. The “Thioflavin T fluorescence t = 120 h” value [3, 9] was 88.9 fluorescence units, the Blood glucose levels (C57/Bl6 male mice; 1 μg/kg subcutaneously, 0 minutes) was 165.3 ± 16.7 mg/dL and the Blood glucose levels (C57/Bl6 male mice; 1 μg/kg subcutaneously, 15 minutes) was 212.0 ± 12.6 mg/dL. It also gave a Blood glucose levels (C57/Bl6 male mice; 1 μg/kg subcutaneously, 30 minutes) of 203.1 ± 13.1 mg/dL, a Blood glucose levels (C57/Bl6 male mice; 1 μg/kg subcutaneously, 60 minutes) of 169.9 ± 10.1 mg/dL and a Blood glucose levels (C57/Bl6 male mice; 1 μg/kg subcutaneously, 120 minutes) of 141.0 ± 4.2 mg/dL. For the same molecule, the Blood glucose levels (C57/Bl6 male mice; 3 μg/kg subcutaneously, 0 minutes) was 148.0 ± 4.6 mg/dL, the Blood glucose levels (C57/Bl6 male mice; 3 μg/kg subcutaneously, 15 minutes) was 234.1 ± 9.8 mg/dL and the Blood glucose levels (C57/Bl6 male mice; 3 μg/kg subcutaneously, 30 minutes) was 242.1 ± 8.3 mg/dL. The Blood glucose levels (C57/Bl6 male mice; 3 μg/kg subcutaneously, 60 minutes) was 169.4 ± 7.3 mg/dL, the Blood glucose levels (C57/Bl6 male mice; 3 μg/kg subcutaneously, 120 minutes) was 148.2 ± 10.9 mg/dL and the Blood glucose levels (C57/Bl6 male mice; 10 μg/kg subcutaneously, 0 minutes) was 155.4 ± 10.1 mg/dL. The Blood glucose levels (C57/Bl6 male mice; 10 μg/kg subcutaneously, 15 minutes) was 270.0 ± 12.7 mg/dL, the Blood glucose levels (C57/Bl6 male mice; 10 μg/kg subcutaneously, 30 minutes) was 308.5 ± 2.6 mg/dL and the Blood glucose levels (C57/Bl6 male mice; 10 μg/kg subcutaneously, 60 minutes) was 212.4 ± 8.3 mg/dL. The Blood glucose levels (C57/Bl6 male mice; 10 μg/kg subcutaneously, 120 minutes) was 152.4 ± 1.5 mg/dL, the ED50 (C57/Bl6 male mice; calculated on the 30 minute glucose measurements, 10 μg/kg taken as maximum, subcutaneous) was 3.28 µg/kg and the “effect on blood glucose” value (C57/Bl6 male mice; subcutaneous, C57/Bl6 mice) was “able to increase blood glucose”.
